How the values were obtained:
[1] = Crystal 2; Adiabatic calorimetry
[2] = Molar enthalpy of transition or fusion; details: Crystal 2; Adiabatic calorimetry
[3] = molar heat capacity at constant pressure; details: 101.33 kPa, Vacuum adiabatic calorimetry

O.O=C([O-])[C@H](O)[C@@H](O)CO.[Na+] [sodium (2R,3S)-2,3,4-trihydroxybutanoate hydrate]
Details	Molar enthalpy of transition or fusion [kcal/mol]	Triple point temperature [K]
[1]	–	311.4
[2]	1.37	–

[3]
Details	molar heat capacity at constant pressure [J/K/mol]
77.95 K, Crystal 2	75
79.37 K, Crystal 2	76.72
81.36 K, Crystal 2	79.56
83.91 K, Crystal 2	84.79
86.36 K, Crystal 2	87.68
88.76 K, Crystal 2	90.45
91.09 K, Crystal 2	93.27
93.36 K, Crystal 2	96.08
95.59 K, Crystal 2	98.2
97.78 K, Crystal 2	100.57
99.92 K, Crystal 2	102.71
102.04 K, Crystal 2	105.14
104.12 K, Crystal 2	107.69
106.16 K, Crystal 2	109.95
108.18 K, Crystal 2	111.9
110.17 K, Crystal 2	113.31
112.13 K, Crystal 2	114.95
114.07 K, Crystal 2	116.19
115.97 K, Crystal 2	117.54
117.86 K, Crystal 2	118.71
119.77 K, Crystal 2	120.32
121.62 K, Crystal 2	121.99
123.51 K, Crystal 2	123.24
125.33 K, Crystal 2	124.71
127.14 K, Crystal 2	125.29
128.86 K, Crystal 2	126.35
130.68 K, Crystal 2	127.87
132.5 K, Crystal 2	128.63
134.24 K, Crystal 2	131.67
135.97 K, Crystal 2	132.68
137.73 K, Crystal 2	133.19
139.48 K, Crystal 2	134.44
141.23 K, Crystal 2	136.19
142.86 K, Crystal 2	137.59
144.61 K, Crystal 2	138.32
146.3 K, Crystal 2	140.73
147.99 K, Crystal 2	140.29
149.61 K, Crystal 2	141.98
151.3 K, Crystal 2	143.95
152.96 K, Crystal 2	145.69
154.61 K, Crystal 2	147.47
156.3 K, Crystal 2	148.86
157.86 K, Crystal 2	150.83
159.54 K, Crystal 2	152.22
161.17 K, Crystal 2	153.62
162.73 K, Crystal 2	154.86
164.35 K, Crystal 2	156.25
165.91 K, Crystal 2	156.39
167.53 K, Crystal 2	158.29
169.09 K, Crystal 2	159.91
172.12 K, Crystal 2	160.63
176.29 K, Crystal 2	162.82
180.3 K, Crystal 2	165.02
184.22 K, Crystal 2	166.35
188.18 K, Crystal 2	168.27
191.97 K, Crystal 2	170.46
195.83 K, Crystal 2	171.25
199.61 K, Crystal 2	172.21
203.33 K, Crystal 2	173.89
207.04 K, Crystal 2	175.99
210.68 K, Crystal 2	177.22
214.32 K, Crystal 2	179.68
217.96 K, Crystal 2	181.35
221.51 K, Crystal 2	183.72
225 K, Crystal 2	185.96
228.51 K, Crystal 2	187.72
231.95 K, Crystal 2	189.41
235.39 K, Crystal 2	192.26
238.79 K, Crystal 2	194.53
242.04 K, Crystal 2	198.57
245.39 K, Crystal 2	201.48
248.7 K, Crystal 2	203.61
252.08 K, Crystal 2	206.16
255.46 K, Crystal 2	208.87
258.7 K, Crystal 2	210.99
262.01 K, Crystal 2	212.53
265.32 K, Crystal 2	215.68
268.57 K, Crystal 2	217.65
271.77 K, Crystal 2	220.53
275 K, Crystal 2	224.17
278.12 K, Crystal 2	228.04
281.3 K, Crystal 2	231.99
284.42 K, Crystal 2	237.12
287.53 K, Crystal 2	241.14
290.52 K, Crystal 2	246.12
293.51 K, Crystal 2	256.15
296.36 K, Crystal 2	269.06
299.17 K, Crystal 2	287.71
301.89 K, Crystal 2	317.39
304.46 K, Crystal 2	360.73
306.87 K, Crystal 2	401.98
309.17 K, Crystal 2	438.39
311.36 K, Crystal 2	491.36
318.51 K, Crystal 1	314.18
320.91 K, Crystal 1	318.35
323.31 K, Crystal 1	325.56
325.78 K, Crystal 1	328.61
328.18 K, Crystal 1	335.06
330.58 K, Crystal 1	339.72
332.99 K, Crystal 1	345.04
335.32 K, Crystal 1	351.32
337.66 K, Crystal 1	358.41
340.01 K, Crystal 1	364.19
342.27 K, Crystal 1	369.83
344.55 K, Crystal 1	376.43
346.82 K, Crystal 1	381.43
349.03 K, Crystal 1	386.89
351.17 K, Crystal 1	394.15
353.25 K, Crystal 1	400.12
355.33 K, Crystal 1	406.54
357.27 K, Crystal 1	412.66
359.16 K, Crystal 1	419.26
360.91 K, Crystal 1	423.77
362.53 K, Crystal 1	426.99
364.09 K, Crystal 1	434.07
365.32 K, Crystal 1	439.39
366.56 K, Crystal 1	441.96
367.66 K, Crystal 1	446.63
368.51 K, Crystal 1	453.39
